According to ChEMBL document CHEMBL3885881, “DrugMatrix”:

Organism: Rattus norvegicus
Experiment: DrugMatrix - Regimen: Daily Repeat
Format: toxicity, organism-based, Sprague-Dawley
Parameters: regimen Daily Repeat, gender Male, age 6-8 weeks
Conditions: in vivo, po, route oral GAVAGE, vehicle 100 % WATER; for ABSOLUTE BASOPHIL / ABSOLUTE EOSINOPHIL / ABSOLUTE LYMPHOCYTE / ABSOLUTE MONOCYTE / ABSOLUTE SEGMENTED NEUTROPHIL / BASOPHIL / EOSINOPHIL / ERYTHROCYTE COUNT / HEMATOCRIT / HEMOGLOBIN / LEUKOCYTE COUNT / LYMPHOCYTE / MEAN CORPUSCULAR HEMOGLOBIN / MEAN CORPUSCULAR HEMOGLOBIN CONCENTRATION / MEAN CORPUSCULAR VOLUME / MONOCYTE / NEUTROPHIL / NUCLEATED RED BLOOD CELLS / PLATELET COUNT: tissue Blood; for ALANINE AMINOTRANSFERASE / ALBUMIN / ALKALINE PHOSPHATASE / ASPARTATE AMINOTRANSFERASE / BLOOD UREA NITROGEN / CARBON DIOXIDE / CHLORIDE / CHOLESTEROL / CREATINE PHOSPHOKINASE / CREATININE / GLUCOSE / LACTATE DEHYDROGENASE / LIPASE / PHOSPHORUS / POTASSIUM / SODIUM / TOTAL BILIRUBIN / TOTAL PROTEIN / URIC ACID: tissue Plasma
[1] = 200 mg/kg, 120 h, dose level Low, time 5 day
[2] = 2625 mg/kg, 72 h, dose level High, time 3 day
[3] = 2625 mg/kg, 120 h, dose level High, time 5 day

Structure (SMILES): O=C(O)c1cccnc1 [NIACIN]
- ABSOLUTE BASOPHIL [1]: 0 CELLS/uL
- ABSOLUTE EOSINOPHIL [1]: 0 CELLS/uL
- ABSOLUTE LYMPHOCYTE [1]: 13805.67 CELLS/uL
- ABSOLUTE MONOCYTE [1]: 0 CELLS/uL
- ABSOLUTE SEGMENTED NEUTROPHIL [1]: 1394.33 CELLS/uL
- BASOPHIL [1]: 0%
- EOSINOPHIL [1]: 0%
- ERYTHROCYTE COUNT [1]: 5.57 x10E6/uL
- HEMATOCRIT [1]: 34.77%
- HEMOGLOBIN [1]: 13.77 G/DL
- LEUKOCYTE COUNT [1]: 15.2 x10E3/uL
- LYMPHOCYTE [1]: 91%
- MEAN CORPUSCULAR HEMOGLOBIN [1]: 24.73 pg
- MEAN CORPUSCULAR HEMOGLOBIN CONCENTRATION [1]: 39.57 G/DL
- MEAN CORPUSCULAR VOLUME [1]: 62.53 fL
- MONOCYTE [1]: 0%
- NEUTROPHIL [1]: 9%
- NUCLEATED RED BLOOD CELLS [1]: 0.33 /100WBC
- PLATELET COUNT [1]: 1180.67 x10E3/uL
- ALANINE AMINOTRANSFERASE [1]: 55.33 u/L
- ALBUMIN [1]: 4.03 G/DL
- ALKALINE PHOSPHATASE [1]: 296.33 u/L
- ASPARTATE AMINOTRANSFERASE [1]: 77.67 u/L
- BLOOD UREA NITROGEN [1]: 12.67 mg/dL
- CARBON DIOXIDE [1]: 31.33 mmol/L
- CHLORIDE [1]: 101.67 MEQ/L
- CHOLESTEROL [1]: 76.33 mg/dL
- CREATINE PHOSPHOKINASE [1]: 209 u/L
- CREATININE [1]: 0.23 mg/dL
- GLUCOSE [1]: 140 mg/dL
- LACTATE DEHYDROGENASE [1]: 212 u/L
- LIPASE [1]: 13 u/L
- PHOSPHORUS [1]: 12.63 mg/dL
- POTASSIUM [1]: 6.55 MEQ/L
- SODIUM [1]: 145.13 MEQ/L
- TOTAL BILIRUBIN [1]: 0.13 mg/dL
- TOTAL PROTEIN [1]: 5.93 G/DL
- URIC ACID [1]: 1.43 mg/dL
- ABSOLUTE BASOPHIL [2]: 0 CELLS/uL
- ABSOLUTE EOSINOPHIL [2]: 135 CELLS/uL
- ABSOLUTE LYMPHOCYTE [2]: 10224 CELLS/uL
- ABSOLUTE MONOCYTE [2]: 258 CELLS/uL
- ABSOLUTE SEGMENTED NEUTROPHIL [2]: 1683 CELLS/uL
- BASOPHIL [2]: 0%
- EOSINOPHIL [2]: 1%
- ERYTHROCYTE COUNT [2]: 5.89 x10E6/uL
- HEMATOCRIT [2]: 36.17%
- HEMOGLOBIN [2]: 14.27 G/DL
- LEUKOCYTE COUNT [2]: 12.3 x10E3/uL
- LYMPHOCYTE [2]: 84%
- MEAN CORPUSCULAR HEMOGLOBIN [2]: 24.23 pg
- MEAN CORPUSCULAR HEMOGLOBIN CONCENTRATION [2]: 39.43 G/DL
- MEAN CORPUSCULAR VOLUME [2]: 61.33 fL
- MONOCYTE [2]: 2%
- NEUTROPHIL [2]: 13%
- NUCLEATED RED BLOOD CELLS [2]: 0.33 /100WBC
- PLATELET COUNT [2]: 1326 x10E3/uL
- ALANINE AMINOTRANSFERASE [2]: 45 u/L
- ALBUMIN [2]: 3.73 G/DL
- ALKALINE PHOSPHATASE [2]: 269.33 u/L
- ASPARTATE AMINOTRANSFERASE [2]: 105 u/L
- BLOOD UREA NITROGEN [2]: 15 mg/dL
- CARBON DIOXIDE [2]: 29 mmol/L
- CHLORIDE [2]: 100.33 MEQ/L
- CHOLESTEROL [2]: 68.67 mg/dL
- CREATINE PHOSPHOKINASE [2]: 532.33 u/L
- CREATININE [2]: 0.18 mg/dL
- GLUCOSE [2]: 145.67 mg/dL
- LACTATE DEHYDROGENASE [2]: 900 u/L
- LIPASE [2]: 11.33 u/L
- PHOSPHORUS [2]: 12.33 mg/dL
- POTASSIUM [2]: 6.2 MEQ/L
- SODIUM [2]: 144.73 MEQ/L
- TOTAL BILIRUBIN [2]: 0.13 mg/dL
- TOTAL PROTEIN [2]: 5.57 G/DL
- URIC ACID [2]: 1.47 mg/dL
- ABSOLUTE BASOPHIL [3]: 0 CELLS/uL
- ABSOLUTE EOSINOPHIL [3]: 0 CELLS/uL
- ABSOLUTE LYMPHOCYTE [3]: 15227.67 CELLS/uL
- ABSOLUTE MONOCYTE [3]: 166 CELLS/uL
- ABSOLUTE SEGMENTED NEUTROPHIL [3]: 1206.33 CELLS/uL
- BASOPHIL [3]: 0%
- EOSINOPHIL [3]: 0%
- ERYTHROCYTE COUNT [3]: 5.68 x10E6/uL
- HEMATOCRIT [3]: 36.37%
- HEMOGLOBIN [3]: 14.23 G/DL
- LEUKOCYTE COUNT [3]: 16.6 x10E3/uL
- LYMPHOCYTE [3]: 91.67%
- MEAN CORPUSCULAR HEMOGLOBIN [3]: 25.07 pg
- MEAN CORPUSCULAR HEMOGLOBIN CONCENTRATION [3]: 39.17 G/DL
- MEAN CORPUSCULAR VOLUME [3]: 64 fL
- MONOCYTE [3]: 1%
- NEUTROPHIL [3]: 7.33%
- NUCLEATED RED BLOOD CELLS [3]: 0.33 /100WBC
- PLATELET COUNT [3]: 1260.67 x10E3/uL
- ALANINE AMINOTRANSFERASE [3]: 55 u/L
- ALBUMIN [3]: 4.07 G/DL
- ALKALINE PHOSPHATASE [3]: 397.33 u/L
- ASPARTATE AMINOTRANSFERASE [3]: 96 u/L
- BLOOD UREA NITROGEN [3]: 16.67 mg/dL
- CARBON DIOXIDE [3]: 32.33 mmol/L
- CHLORIDE [3]: 100.67 MEQ/L
- CHOLESTEROL [3]: 55.33 mg/dL
- CREATINE PHOSPHOKINASE [3]: 323.67 u/L
- CREATININE [3]: 0.2 mg/dL
- GLUCOSE [3]: 151 mg/dL
- LACTATE DEHYDROGENASE [3]: 666 u/L
- LIPASE [3]: 10.33 u/L
- PHOSPHORUS [3]: 11.7 mg/dL
- POTASSIUM [3]: 6.01 MEQ/L
- SODIUM [3]: 145.9 MEQ/L
- TOTAL BILIRUBIN [3]: 0.27 mg/dL
- TOTAL PROTEIN [3]: 5.7 G/DL
- URIC ACID [3]: 1.43 mg/dL
